Values quoted from earlier work, collected in patent US20230112418A1, “COMPOUND AND RADIOACTIVE LABELING COMPOUND” (NIHON MEDI-PHYSICS CO., LTD., priority 2020, published 2023).

Details: compared with kidney value one hour after the injection; EJNMMI Res 2012, J Nucl Med 2017; cited from earlier work

O=C([O-])CN(CCN(CC(=O)[O-])Cc1cc(CCC(=O)NCCCCCC(=O)NCCCC[C@H](NC(=O)N[C@@H](CCC(=O)O)C(=O)O)C(=O)O)ccc1[O-])Cc1cc(CCC(=O)O)ccc1[O-].[68Ga+3].[OH3+] [[^68Ga]Ga-PSMA-11]
Accumulation in the kidney (literature): 139 % ID/g
